The values below come from paper PMC11685430 (Nature Communications, 2024).

Series [1] concerns adenosine receptor subtypes (A1R, A2AR, A2BR, A3R). The format is in vivo, mouse. The conditions noted are these: i.t. 10 nmol.
For the next series, the system named is A1R. The series is described as follows: Reversal of JH-ENT-01 analgesia by A1R antagonist in STZ-treated mice. The conditions noted are these: i.t. 10 nmol, 30 min prior to JH-ENT-01 10 nmol. The format is in vivo, mouse.
Series [2] relates to spinal dorsal horn outer lamina II (IIo) neurons. The series is described as follows: Patch clamp recording of sEPSCs in spinal cord slices of naive mice. The format is cell-based, mouse. To be noted: DPCPX alone 1 μM.
Series [3] relates to mice. The series is described as follows: Rotarod test before and 60 min after i.t. delivery. Format: in vivo, mouse. The conditions noted are these: 60 min after i.t. 100 nmol. In general terms: The rotarod test checks motor coordination on a turning rod.
Series [4] can be described thus: Plasma and tissue pharmacokinetics after subcutaneous administration. Format: in vivo. To be noted: male, CD-1, mouse, plasma, sc.
In a further series the target is T1, G154S hENT1 (Homo sapiens, UniProt Q99808, G154S).
T1 sequence (Q99808 1-456 G154S): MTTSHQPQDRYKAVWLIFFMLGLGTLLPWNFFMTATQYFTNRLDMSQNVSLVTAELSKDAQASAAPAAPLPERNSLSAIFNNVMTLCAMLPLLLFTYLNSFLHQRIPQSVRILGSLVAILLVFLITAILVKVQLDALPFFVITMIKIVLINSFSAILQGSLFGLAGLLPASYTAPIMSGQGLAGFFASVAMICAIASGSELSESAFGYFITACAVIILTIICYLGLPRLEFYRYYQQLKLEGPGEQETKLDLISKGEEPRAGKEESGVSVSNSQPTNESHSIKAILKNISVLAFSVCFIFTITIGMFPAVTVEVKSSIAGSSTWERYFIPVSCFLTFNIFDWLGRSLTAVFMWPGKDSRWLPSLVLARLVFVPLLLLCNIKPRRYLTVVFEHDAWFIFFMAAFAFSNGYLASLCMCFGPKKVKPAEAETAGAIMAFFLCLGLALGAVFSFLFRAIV
In words: [3H]-adenosine uptake in oocytes expressing G154S hENT1. Format: cell-based. To be noted: Fig 1g.

Series [5] deals with mice with STZ-induced diabetic neuropathy. The series is described as follows: STZ-induced diabetic neuropathy, mechanical pain. The format is in vivo, mouse.
In series [6] the test system is mice, CFA-induced inflammatory pain. In words: CFA-induced persistent inflammatory pain, von Frey test. The conditions noted are these: i.v., 10 mg/ml as printed; days 1, 3, 5 after CFA. Format: in vivo, mouse.
Series [7] has as its system mice. The series is described as follows: Electrocardiogram. Format: in vivo, mouse.
In series [8] the test system is mice, formalin-induced inflammatory pain. In words: Formalin-induced acute inflammatory pain. The format is in vivo, mouse. To be noted: i.t., JH-ENT-01 1, 10, 100 nmol, dilazep 100 nmol.
Series [9] has as its system mice with STZ-induced diabetic neuropathy. In words: Survival of STZ mice after repeated injections. Format: in vivo, mouse.

Regarding `CCCn1c(=O)c2[nH]c(C3CCCC3)nc2n(CCC)c1=O` [DPCPX], in series [1], the “reversal of JH-ENT-01 analgesia” value is given as “reversal”. Also, the “effect on analgesic action of JH-ENT-01 (PWT)” value in the series on A1R is listed as “prevented”. Also, the “sEPSC frequency and amplitude” value in [2] is “no effects on sEPSC frequency and amplitude”.
As for `COc1cc(C(=O)OCCCN2CCCN(CCCOC(=O)c3cc(OC)c(OC)c(OC)c3)CC2)cc(OC)c1OC` [dilazep], the “motor function in rotarod test” value in the series with mice [3] is on record as “no significant changes in the falling latency”. Also, in series [4], the Cmax – broadly, the peak of the concentration-time curve – was 409 ng/mL. Also, the “preferential inhibition of wild type hENT1 over G154S” value at G154S hENT1 was “did not show any preference”. The “paw withdrawal threshold (PWT)” value was “failed to elicit an increase in PWT” in series [5] (i.t. 10 nmol); “did not observe any analgesic effect” in series [5] (i.v. 30 mg/kg on days 8, 10, 12 after STZ); “no effects” in series [6]. Also, the “neuropathic pain in the STZ model” value in series [5] (s.c. 3 x 30 mg/kg) is reported as “no effects”. The “paw withdrawal frequency (PWF)” value in series [6] is listed as “no effects”. The “effect on heart rates” value with mice [7] (i.p. 10 mg/kg and 30 mg/kg) is “no significant decrease”; in the series on mice [7] (i.v. 30 mg/kg, first hour), “significant decrease”. The “formalin-induced 2nd phase pain” value in [8] is recorded as “significant inhibition of phase 2 pain only when data from both sexes were combined”. Moreover, the “formalin-induced phase 1 pain” value in series [8] (both sexes) was “not affected”. Further, in series [9] (i.v. 30 mg/kg, 3 injections), the “death / survival of mice” value is reported as 7 out of 16. Further, the survival of mice entry in series [9] (s.c. 3 x 30 mg/kg) is recorded as “all mice survived”.
